Assay results as given in ChEMBL document CHEMBL1821711, “Design and synthesis of novel arylpiperazine derivatives containing the imidazole core targeting 5-HT(2A) receptor and 5-HT transporter” (J Med Chem, 2011).
pIC50: −log10 of the molar value.

Experiments:
Cytochrome P450 2C9 = Cytochrome P450 2C9 (Homo sapiens, UniProt P11712)
Description: Inhibition of human recombinant CYP2C9 by luceferin-based assay

Cytochrome P450 3A4 = Cytochrome P450 3A4 (Homo sapiens, UniProt P08684)
Description: Inhibition of human recombinant CYP3A4 by luceferin-based assay

in vitro = conditions: mouse, ht-22
Description: Cytotoxicity against mouse HT22 cells after 48 hrs by MTT assay

Cytochrome P450 2D6 = Cytochrome P450 2D6 (Homo sapiens, UniProt P10635)
Description: Inhibition of human recombinant CYP2D6 by luceferin-based assay

Cytochrome P450 1A2 = biological target: T1, Cytochrome P450 1A2 (Homo sapiens, UniProt P05177)
T1 sequence (P05177 whole entry): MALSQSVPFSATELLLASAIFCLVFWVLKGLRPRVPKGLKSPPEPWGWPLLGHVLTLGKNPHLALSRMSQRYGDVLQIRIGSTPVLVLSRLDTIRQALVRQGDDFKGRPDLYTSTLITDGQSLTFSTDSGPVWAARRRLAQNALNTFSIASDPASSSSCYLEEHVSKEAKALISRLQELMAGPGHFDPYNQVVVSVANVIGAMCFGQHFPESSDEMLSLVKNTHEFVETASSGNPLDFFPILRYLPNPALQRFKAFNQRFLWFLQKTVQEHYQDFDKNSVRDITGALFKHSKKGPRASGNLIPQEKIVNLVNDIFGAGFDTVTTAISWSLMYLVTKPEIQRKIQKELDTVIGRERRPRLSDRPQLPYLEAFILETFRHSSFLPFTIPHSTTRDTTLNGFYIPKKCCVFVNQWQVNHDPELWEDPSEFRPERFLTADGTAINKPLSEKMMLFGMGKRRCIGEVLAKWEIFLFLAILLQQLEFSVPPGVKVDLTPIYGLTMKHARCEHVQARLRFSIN
Description: Inhibition of human recombinant CYP1A2 by luceferin-based assay

[1] = biological target: Voltage-gated inwardly rectifying potassium channel KCNH2 (Homo sapiens, UniProt Q12809)
Description: Displacement of [3H]astemizole from human ERG expressed in HEK293 cells

[2] = biological target: T2, 5-hydroxytryptamine receptor 2C (Homo sapiens, UniProt P28335); experiment: biochemical; type: cell-based, CHO-K1
T2 sequence (P28335 whole entry): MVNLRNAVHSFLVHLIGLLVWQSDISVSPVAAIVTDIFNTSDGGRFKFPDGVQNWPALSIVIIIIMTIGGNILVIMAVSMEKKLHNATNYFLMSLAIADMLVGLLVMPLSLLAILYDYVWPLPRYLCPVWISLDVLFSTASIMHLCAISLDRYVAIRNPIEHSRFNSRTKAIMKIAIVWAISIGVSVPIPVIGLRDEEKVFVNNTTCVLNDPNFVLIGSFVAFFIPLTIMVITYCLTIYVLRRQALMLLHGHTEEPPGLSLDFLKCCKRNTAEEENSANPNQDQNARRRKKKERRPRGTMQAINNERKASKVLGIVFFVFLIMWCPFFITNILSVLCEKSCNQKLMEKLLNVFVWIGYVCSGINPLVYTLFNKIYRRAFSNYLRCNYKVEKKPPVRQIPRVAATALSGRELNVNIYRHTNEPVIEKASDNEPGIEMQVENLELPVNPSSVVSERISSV
Description: Displacement of [3H]mesulergine from human recombinant 5-HT2C receptor expressed in CHO-K1 cells

[3] = biological target: 5-hydroxytryptamine receptor 6 (Homo sapiens, UniProt P50406)
Description: Inhibition of 5HT6 receptor by competition binding assay

D(2) dopamine receptor = D(2) dopamine receptor (Homo sapiens, UniProt P14416)
Description: Inhibition of dopamine D2 receptor by competition binding assay

D(3) dopamine receptor = D(3) dopamine receptor (Homo sapiens, UniProt P35462)
Description: Inhibition of dopamine D3 receptor by competition binding assay

[4] = biological target: 5-hydroxytryptamine receptor 7 (Homo sapiens, UniProt P34969)
Description: Inhibition of 5HT7 receptor by competition binding assay

D(4) dopamine receptor = biological target: T3, D(4) dopamine receptor (Homo sapiens, UniProt P21917)
T3 sequence (P21917 whole entry): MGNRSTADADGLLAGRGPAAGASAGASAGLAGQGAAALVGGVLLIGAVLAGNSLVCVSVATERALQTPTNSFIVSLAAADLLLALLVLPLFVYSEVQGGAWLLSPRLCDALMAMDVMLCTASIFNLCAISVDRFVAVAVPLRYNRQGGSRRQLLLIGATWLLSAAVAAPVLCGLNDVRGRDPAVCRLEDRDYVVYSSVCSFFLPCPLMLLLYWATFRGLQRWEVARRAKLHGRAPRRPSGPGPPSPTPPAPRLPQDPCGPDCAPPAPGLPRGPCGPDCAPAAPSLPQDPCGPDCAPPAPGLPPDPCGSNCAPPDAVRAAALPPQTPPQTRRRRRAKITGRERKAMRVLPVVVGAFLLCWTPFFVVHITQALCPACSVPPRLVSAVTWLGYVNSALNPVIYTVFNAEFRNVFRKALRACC
Description: inhibition of dopamine D4 receptor by competition binding assay

[5] = biological target: T4, 5-hydroxytryptamine receptor 1A (Homo sapiens, UniProt P08908)
T4 sequence (P08908 whole entry): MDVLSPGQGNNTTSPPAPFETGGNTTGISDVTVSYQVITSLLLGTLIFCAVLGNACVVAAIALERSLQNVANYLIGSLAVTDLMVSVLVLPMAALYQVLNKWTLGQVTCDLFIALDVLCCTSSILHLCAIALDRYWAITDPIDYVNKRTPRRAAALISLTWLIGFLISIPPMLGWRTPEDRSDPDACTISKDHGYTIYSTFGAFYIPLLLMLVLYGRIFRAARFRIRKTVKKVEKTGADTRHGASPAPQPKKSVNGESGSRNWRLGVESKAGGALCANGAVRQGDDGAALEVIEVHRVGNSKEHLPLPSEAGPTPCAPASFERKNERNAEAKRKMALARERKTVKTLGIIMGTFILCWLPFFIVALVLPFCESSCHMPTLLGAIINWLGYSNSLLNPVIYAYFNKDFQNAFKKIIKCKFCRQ
Description: Inhibition of 5HT1A receptor by competition binding assay

Voltage-gated inwardly rectifying potassium channel KCNH2, sequence (Q12809 whole entry): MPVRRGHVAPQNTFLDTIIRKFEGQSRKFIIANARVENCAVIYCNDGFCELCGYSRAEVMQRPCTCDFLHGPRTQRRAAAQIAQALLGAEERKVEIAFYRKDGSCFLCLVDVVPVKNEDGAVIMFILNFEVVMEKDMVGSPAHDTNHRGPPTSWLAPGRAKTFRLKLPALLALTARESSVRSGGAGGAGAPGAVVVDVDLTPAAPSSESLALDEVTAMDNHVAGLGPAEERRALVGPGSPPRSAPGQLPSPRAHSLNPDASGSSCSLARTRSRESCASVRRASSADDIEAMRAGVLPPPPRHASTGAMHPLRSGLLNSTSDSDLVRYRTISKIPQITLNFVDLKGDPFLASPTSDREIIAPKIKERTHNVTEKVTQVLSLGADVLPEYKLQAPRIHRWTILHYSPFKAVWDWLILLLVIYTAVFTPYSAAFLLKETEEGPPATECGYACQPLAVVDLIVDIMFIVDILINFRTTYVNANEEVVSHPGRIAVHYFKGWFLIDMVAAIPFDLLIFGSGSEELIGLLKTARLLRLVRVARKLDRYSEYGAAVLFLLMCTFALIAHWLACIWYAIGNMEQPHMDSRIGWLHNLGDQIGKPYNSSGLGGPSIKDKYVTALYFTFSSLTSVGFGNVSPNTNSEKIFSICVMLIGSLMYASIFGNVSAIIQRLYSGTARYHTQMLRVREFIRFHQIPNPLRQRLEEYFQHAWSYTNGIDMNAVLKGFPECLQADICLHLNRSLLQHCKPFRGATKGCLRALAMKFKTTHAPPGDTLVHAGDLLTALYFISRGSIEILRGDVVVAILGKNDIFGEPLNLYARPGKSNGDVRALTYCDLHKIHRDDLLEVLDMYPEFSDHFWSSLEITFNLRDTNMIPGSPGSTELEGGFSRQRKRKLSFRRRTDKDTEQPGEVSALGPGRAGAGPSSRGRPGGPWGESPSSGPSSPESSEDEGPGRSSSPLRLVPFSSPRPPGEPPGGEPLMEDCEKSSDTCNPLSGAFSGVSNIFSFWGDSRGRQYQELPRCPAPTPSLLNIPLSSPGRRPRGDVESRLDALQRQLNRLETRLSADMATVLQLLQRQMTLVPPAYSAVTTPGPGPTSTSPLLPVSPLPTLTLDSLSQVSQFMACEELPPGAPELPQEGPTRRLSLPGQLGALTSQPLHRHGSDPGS
5-hydroxytryptamine receptor 7, sequence (P34969 whole entry): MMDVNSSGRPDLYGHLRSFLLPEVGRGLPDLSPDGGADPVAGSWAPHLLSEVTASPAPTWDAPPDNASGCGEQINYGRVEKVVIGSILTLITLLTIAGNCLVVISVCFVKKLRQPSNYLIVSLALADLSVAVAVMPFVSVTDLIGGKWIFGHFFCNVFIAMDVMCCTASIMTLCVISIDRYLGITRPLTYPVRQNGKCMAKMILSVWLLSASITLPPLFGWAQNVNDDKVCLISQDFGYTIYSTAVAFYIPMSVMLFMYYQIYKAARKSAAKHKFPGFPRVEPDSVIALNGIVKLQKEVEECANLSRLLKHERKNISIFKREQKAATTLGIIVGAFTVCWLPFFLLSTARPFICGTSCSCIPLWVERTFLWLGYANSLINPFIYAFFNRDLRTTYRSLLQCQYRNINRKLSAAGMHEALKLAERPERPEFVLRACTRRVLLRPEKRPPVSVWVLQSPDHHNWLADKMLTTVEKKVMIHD
D(2) dopamine receptor, sequence (P14416 whole entry): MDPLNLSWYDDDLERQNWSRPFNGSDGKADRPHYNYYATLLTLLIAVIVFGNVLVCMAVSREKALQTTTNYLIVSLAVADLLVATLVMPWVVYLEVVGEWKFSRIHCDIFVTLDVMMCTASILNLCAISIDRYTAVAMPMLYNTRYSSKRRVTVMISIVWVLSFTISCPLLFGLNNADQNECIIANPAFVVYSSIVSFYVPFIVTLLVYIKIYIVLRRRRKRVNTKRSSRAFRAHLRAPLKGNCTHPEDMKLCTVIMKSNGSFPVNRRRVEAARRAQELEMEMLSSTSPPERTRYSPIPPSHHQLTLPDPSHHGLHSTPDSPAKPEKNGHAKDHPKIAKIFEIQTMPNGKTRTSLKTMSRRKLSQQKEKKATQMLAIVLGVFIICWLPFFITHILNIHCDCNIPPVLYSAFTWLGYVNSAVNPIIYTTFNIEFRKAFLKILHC
5-hydroxytryptamine receptor 6, sequence (P50406 whole entry): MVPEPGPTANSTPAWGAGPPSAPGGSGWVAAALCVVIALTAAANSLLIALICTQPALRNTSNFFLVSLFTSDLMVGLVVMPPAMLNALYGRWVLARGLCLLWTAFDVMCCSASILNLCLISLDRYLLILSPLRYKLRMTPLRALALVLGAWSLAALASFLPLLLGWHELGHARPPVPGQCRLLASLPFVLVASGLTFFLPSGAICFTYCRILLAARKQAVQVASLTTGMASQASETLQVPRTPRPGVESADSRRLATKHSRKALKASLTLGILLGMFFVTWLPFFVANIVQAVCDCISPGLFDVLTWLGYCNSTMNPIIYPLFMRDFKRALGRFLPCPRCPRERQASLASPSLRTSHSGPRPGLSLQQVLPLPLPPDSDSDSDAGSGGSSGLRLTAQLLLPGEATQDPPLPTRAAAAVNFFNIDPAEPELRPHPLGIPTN
Cytochrome P450 2C9, sequence (P11712 whole entry): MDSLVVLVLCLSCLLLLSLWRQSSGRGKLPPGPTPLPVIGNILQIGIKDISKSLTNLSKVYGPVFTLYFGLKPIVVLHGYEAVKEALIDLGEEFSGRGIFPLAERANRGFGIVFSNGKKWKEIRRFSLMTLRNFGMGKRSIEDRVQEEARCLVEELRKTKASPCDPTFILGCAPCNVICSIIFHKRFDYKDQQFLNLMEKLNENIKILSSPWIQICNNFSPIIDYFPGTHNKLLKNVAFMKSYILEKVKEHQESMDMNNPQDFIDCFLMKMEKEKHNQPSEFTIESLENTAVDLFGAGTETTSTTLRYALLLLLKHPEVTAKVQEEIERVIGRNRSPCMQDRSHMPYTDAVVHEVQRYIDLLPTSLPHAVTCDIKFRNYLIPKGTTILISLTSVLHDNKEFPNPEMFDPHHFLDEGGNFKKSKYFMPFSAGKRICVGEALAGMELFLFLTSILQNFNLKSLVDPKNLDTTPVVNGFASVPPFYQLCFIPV
D(3) dopamine receptor, sequence (P35462 whole entry): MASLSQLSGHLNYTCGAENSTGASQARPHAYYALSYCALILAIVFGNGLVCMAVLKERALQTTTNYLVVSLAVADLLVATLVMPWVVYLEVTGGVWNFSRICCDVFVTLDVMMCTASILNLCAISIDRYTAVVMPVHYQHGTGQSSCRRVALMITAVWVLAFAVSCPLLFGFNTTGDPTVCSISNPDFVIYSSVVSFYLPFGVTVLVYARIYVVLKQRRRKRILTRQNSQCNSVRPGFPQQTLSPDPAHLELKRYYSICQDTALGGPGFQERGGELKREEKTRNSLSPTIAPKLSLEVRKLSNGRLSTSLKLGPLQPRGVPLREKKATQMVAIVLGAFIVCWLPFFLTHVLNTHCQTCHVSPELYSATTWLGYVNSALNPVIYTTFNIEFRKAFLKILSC
Cytochrome P450 2D6, sequence (P10635 whole entry): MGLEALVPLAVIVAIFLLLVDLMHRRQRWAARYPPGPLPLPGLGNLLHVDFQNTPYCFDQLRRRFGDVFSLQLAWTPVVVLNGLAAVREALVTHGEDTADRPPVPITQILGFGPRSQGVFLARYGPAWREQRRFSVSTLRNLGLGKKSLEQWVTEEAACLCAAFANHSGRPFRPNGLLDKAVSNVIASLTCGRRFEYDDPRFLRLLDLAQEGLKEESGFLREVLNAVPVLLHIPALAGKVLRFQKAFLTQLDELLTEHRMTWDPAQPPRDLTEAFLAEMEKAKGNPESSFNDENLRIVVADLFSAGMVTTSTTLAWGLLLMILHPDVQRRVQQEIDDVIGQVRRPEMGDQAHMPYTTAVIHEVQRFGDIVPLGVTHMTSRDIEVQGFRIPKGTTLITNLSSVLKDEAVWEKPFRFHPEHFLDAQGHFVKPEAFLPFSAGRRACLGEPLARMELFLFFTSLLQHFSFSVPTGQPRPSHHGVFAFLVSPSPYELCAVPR
Cytochrome P450 3A4, sequence (P08684 whole entry): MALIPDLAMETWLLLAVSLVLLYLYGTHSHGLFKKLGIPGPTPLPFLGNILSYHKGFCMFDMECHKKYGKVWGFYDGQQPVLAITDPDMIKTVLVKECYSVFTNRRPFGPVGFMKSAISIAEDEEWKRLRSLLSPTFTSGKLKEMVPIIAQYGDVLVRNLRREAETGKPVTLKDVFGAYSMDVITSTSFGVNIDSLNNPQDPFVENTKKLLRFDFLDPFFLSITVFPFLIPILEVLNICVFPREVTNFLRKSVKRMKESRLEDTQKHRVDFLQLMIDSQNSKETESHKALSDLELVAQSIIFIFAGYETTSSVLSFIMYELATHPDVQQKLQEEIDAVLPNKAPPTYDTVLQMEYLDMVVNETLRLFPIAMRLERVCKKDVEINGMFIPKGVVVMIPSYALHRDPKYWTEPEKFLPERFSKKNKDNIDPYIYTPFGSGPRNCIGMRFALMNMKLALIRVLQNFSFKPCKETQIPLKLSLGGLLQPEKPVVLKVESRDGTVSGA

## Cc1cccc(N2CCN(CCCNC(=O)c3nc(C)n(-c4ccc5c(c4)OCCO5)c3C)CC2)c1C
Cytochrome P450 2C9
  pIC50: 5.36
Cytochrome P450 3A4
  pIC50: < 4.70
In vitro
  CC50 at 48 h: 19.3 µM
Cytochrome P450 2D6
  pIC50: 4.75
Cytochrome P450 1A2
  pIC50: < 4.70
[1]
  pIC50: 5.06
[2]
  pIC50: 5.40

## Cc1nc(C(=O)NCCN2CCN(c3cccc(Cl)c3Cl)CC2)c(C)n1-c1ccccc1
[3]
  pIC50: 5.77
D(2) dopamine receptor
  pIC50: 6.04
D(3) dopamine receptor
  pIC50: 5.66
[4]
  pIC50: 8.17
[1]
  pIC50: < 5.00
D(4) dopamine receptor
  pIC50: 5.40
[5]
  pIC50: 8.41
